Results on three molecules are retold here after patent US7462345B2, “Radionuclide labeling of vitamin B12 and coenzymes thereof” (Mayo Foundation for Medical Education and Research, priority 1995, dated 2008).

One data set deals with Intrinsic Factor (IF). As to the kind of experiment: modified intrinsic factor blocking antibody (IFBA) assay. It counts as binding. Conditions: for averaged percent binding to IF: average of five patients, estimated from counts vs Clinical run. The protocol:
(§1) Under dim light, 1000 μg of the non-labeled methyl-, adenosyl-, and cyanocobalamin-b-(4-aminobutyl)amide-DTPA, as well as 1000 μg of cyanocobalamin and DTPA (Sigma, St. Louis, Mo. 63178), were separately dissolved in 10 ml of normal saline at room temperature. Each of the five 1000 μg/10 ml samples were stored in sealed, aluminum-Tapped 10 ml vials to prevent exposure to light. No buffers were added to the solutions. The pH of the solutions, measured by a Beckman 40 pH meter (Beckman Instruments, Fullerton, Calif.): Cyanocobalamin=5.75, DTPA=3.78; cyano, methyl and adenosylcobalamin-DTPA analogues were 5.75, 6.10, and 6.19, respectively. To assess in vitro binding to Intrinsic Factor (IF) and Transcobalamins (TC), the intrinsic factor blocking antibody (IFBA) and Unsaturated vitamin B12 Binding Capacity (UBBC) assays were performed with serum randomly obtained from five patients being evaluated for pernicious anemia at the Mayo Clinic. The IFBA and UBBC assays were first performed for clinical purposes as previously described by V. F. Fairbanks et al., Mayo Clin. Proc., 58, 203 (1983); Intrinsic Factor Blocking Antibody [^57Co] Radioassay-Package insert, Diagnostic Products Corp.; D. Grossowicz et al., Proc. Exp. Biol. 109, 604 (1962) and C. Gottlieb et al., Blood 25, 6 (1965). Next, the serum from the same five patients underwent modified IFBA and UBBC assays. Specifically, 1 μl of the five previously described solutions were separately incubated with purified IF or serum, to potentially saturate all IF and TC binding sites. After incubation for 20 minutes at room temperature and for another 20 minutes at 4° C., 500 μl of the stock (1000 μg/l) Cobalt-57-cyanocobalamin (Mallinckrodt Medical. Inc., St. Louis, Mo. 63134) solution was added and the usual IFBA and UBBC protocols were then followed. All supernatant activity was counted for four minutes on a gamma counter (Micromedix 10/20, Huntsville, Ala. 35805).

The next data set has as its system Transcobalamins (TC). In words: modified Unsaturated vitamin B12 Binding Capacity (UBBC) assay. The conditions noted are these: for averaged percent binding to the transcobalamin proteins: average of five patients; for UBBC supernatant counts: NSB = counts <100. Further details: species or system human. As for the experimental part: as §1
Data set [1] in a line: pH of 1000 μg/10 ml normal saline solutions. The conditions noted are these: 1000 μg in 10 ml normal saline, no buffers, room temperature. It counts as physicochemical. As for the experimental part:
Under dim light, 1000 μg of the non-labeled methyl-, adenosyl-, and cyanocobalamin-b-(4-aminobutyl)amide-DTPA, as well as 1000 μg of cyanocobalamin and DTPA (Sigma, St. Louis, Mo. 63178), were separately dissolved in 10 ml of normal saline at room temperature. Each of the five 1000 μg/10 ml samples were stored in sealed, aluminum-Tapped 10 ml vials to prevent exposure to light. No buffers were added to the solutions. The pH of the solutions, measured by a Beckman 40 pH meter (Beckman Instruments, Fullerton, Calif.): Cyanocobalamin=5.75, DTPA=3.78; cyano, methyl and adenosylcobalamin-DTPA analogues were 5.75, 6.10, and 6.19, respectively.

Setting [2] is: PT 1, negative <1.11, positive (binding to IF) >1.43, indeterminate 1.11-1.43.
The mark [3] stands for this setting: PT 2, negative <1.11, positive >1.43.
Where [4] appears, read: PT 3, negative <1.11, positive >1.43.
Where [5] appears, read: PT 4, negative <1.11, positive >1.43.
Setting [6] is: PT 5, negative <1.11, positive >1.43.
[7] abbreviates: serum PT 1, preincubated with 1 μl of 1000 μg/10 ml solution, then Co-57-cyanocobalamin, Clinical Run 741.

In the case of `CC1=C2N=C(C=C3N=C(C(C)=C4[N-]C(C(CC(N)=O)C4(C)CCC(=O)NCC(C)OP(=O)([O-])OC4C(CO)OC(n5cnc6cc(C)c(C)cc65)C4O)C4(C)N=C1C(CCC(=O)NCCCCNC(=O)CN(CCN(CCN(CC(=O)O)CC(=O)O)CC(=O)O)CC(=O)O)C4(C)CC(N)=O)C(CCC(N)=O)C3(C)C)C(CCC(N)=O)C2(C)CC(N)=O.[CH2-]C1OC(n2cnc3c(N)ncnc32)C(O)C1O.[Co+3]` (stereo not drawn) [ADB12DTPA, adenosylcobalamin-b-(4-aminobutyl)-amide-DTPA], the IFBA supernatant counts with Intrinsic Factor (IF) (PT 1, Clinical Run 11942.5) was found to be 6758.5 counts; in the data set on Intrinsic Factor (IF) (PT 2, Clinical Run 11656) it was 6841.5 counts; in the data set with Intrinsic Factor (IF) (PT 3, Clinical Run 11780), 6828.5 counts; in the data set on Intrinsic Factor (IF) (PT 4, Clinical Run 11617) it was 7046.5 counts; in the data set on Intrinsic Factor (IF) (PT 5, Clinical Run 11653.5) it was 7096.5 counts. The “IFBA value (in parentheses)” value with Intrinsic Factor (IF) (setting [2]) was “(2.30)”; in the data set with Intrinsic Factor (IF) (setting [3]), “(1.74)”; in the data set with Intrinsic Factor (IF) (setting [4]) it was “(1.74)”; with Intrinsic Factor (IF) (setting [5]), “(1.64)”; with Intrinsic Factor (IF) (setting [6]), “(1.72)”. For the same molecule, the “averaged percent binding to IF” value in the data set with Intrinsic Factor (IF) was 41.0%. Also, the “averaged percent binding to the transcobalamin proteins” value in the data set with Transcobalamins (TC) was 90.4%. In addition, the UBBC supernatant counts in the data set on Transcobalamins (TC) (setting [7]) is given as 54.6 counts; in the data set with Transcobalamins (TC) (serum PT 2, Clinical Run 632), 62.6 counts; in the data set on Transcobalamins (TC) (serum PT 3, Clinical Run 2097) it was 590.3 counts; in the data set on Transcobalamins (TC) (serum PT 4, Clinical Run 1378), 126.9 counts; with Transcobalamins (TC) (serum PT 5, Clinical Run 1682), 163.9 counts. In data set [1], the “pH of the solution” value is listed as 6.19.

Consider `CC1=C2N=C(C=C3N=C(C(C)=C4[N-]C(C(CC(N)=O)C4(C)CCC(=O)NCC(C)OP(=O)([O-])OC4C(CO)OC(n5cnc6cc(C)c(C)cc65)C4O)C4(C)N=C1C(CCC(=O)NCCCCNC(=O)CN(CCN(CCN(CC(=O)O)CC(=O)O)CC(=O)O)CC(=O)O)C4(C)CC(N)=O)C(CCC(N)=O)C3(C)C)C(CCC(N)=O)C2(C)CC(N)=O.[C-]#N.[Co+3]` (stereo not drawn) [CNB12DTPA, cyanocobalamin-b-(4-aminobutyl)-amide-DTPA], for which the IFBA supernatant counts was determined as 5151 counts in the data set with Intrinsic Factor (IF) (PT 1, Clinical Run 11942.5); 5133.5 counts in the data set on Intrinsic Factor (IF) (PT 2, Clinical Run 11656); 5338.5 counts with Intrinsic Factor (IF) (PT 3, Clinical Run 11780); 6002.5 counts in the data set with Intrinsic Factor (IF) (PT 4, Clinical Run 11617); 5973.5 counts with Intrinsic Factor (IF) (PT 5, Clinical Run 11653.5). Also, the “IFBA value (in parentheses)” value is recorded as “(2.30)” in the data set on Intrinsic Factor (IF) (setting [2]); “(2.31)” in the data set with Intrinsic Factor (IF) (setting [3]); “(2.22)” in the data set on Intrinsic Factor (IF) (setting [4]); “(1.98)” in the data set on Intrinsic Factor (IF) (setting [5]); “(1.99)” in the data set with Intrinsic Factor (IF) (setting [6]). For the same molecule, in the data set on Intrinsic Factor (IF), the “averaged percent binding to IF” value is listed as 52.9%. For the same molecule, the “averaged percent binding to the transcobalamin proteins” value with Transcobalamins (TC) is 66.4%. The UBBC supernatant counts was 222.6 counts in the data set on Transcobalamins (TC) (setting [7]); 216.9 counts in the data set on Transcobalamins (TC) (serum PT 2, Clinical Run 632); 713.3 counts in the data set on Transcobalamins (TC) (serum PT 3, Clinical Run 2097); 433.2 counts with Transcobalamins (TC) (serum PT 4, Clinical Run 1378); 643.2 counts with Transcobalamins (TC) (serum PT 5, Clinical Run 1682). In addition, the “pH of the solution” value in data set [1] is on record as 5.75.

With `CC1=C2N=C(C=C3N=C(C(C)=C4[N-]C(C(CC(N)=O)C4(C)CCC(=O)NCC(C)OP(=O)([O-])OC4C(CO)OC(n5cnc6cc(C)c(C)cc65)C4O)C4(C)N=C1C(CCC(=O)NCCCCNC(=O)CN(CCN(CCN(CC(=O)O)CC(=O)O)CC(=O)O)CC(=O)O)C4(C)CC(N)=O)C(CCC(N)=O)C3(C)C)C(CCC(N)=O)C2(C)CC(N)=O.[CH3-].[Co+3]` (stereo not drawn) [MEB12DTPA, methylcobalamin-b-(4-aminobutyl)-amide-DTPA], the IFBA supernatant counts is 4279 counts with Intrinsic Factor (IF) (PT 1, Clinical Run 11942.5); 4082 counts in the data set on Intrinsic Factor (IF) (PT 2, Clinical Run 11656); 4456.5 counts with Intrinsic Factor (IF) (PT 3, Clinical Run 11780); 4414 counts in the data set with Intrinsic Factor (IF) (PT 4, Clinical Run 11617); 4381.5 counts in the data set with Intrinsic Factor (IF) (PT 5, Clinical Run 11653.5). For the same molecule, the “IFBA value (in parentheses)” value was “(2.77)” in the data set with Intrinsic Factor (IF) (setting [2]); “(2.92)” with Intrinsic Factor (IF) (setting [3]); “(2.66)” in the data set with Intrinsic Factor (IF) (setting [4]); “(2.69)” in the data set on Intrinsic Factor (IF) (setting [5]); “(2.77)” in the data set on Intrinsic Factor (IF) (setting [6]). Further, in the data set on Intrinsic Factor (IF), the “averaged percent binding to IF” value is on record as 63.2%. The “averaged percent binding to the transcobalamin proteins” value in the data set with Transcobalamins (TC) stood at 94.0%. Moreover, the UBBC supernatant counts came to 17.1 counts in the data set on Transcobalamins (TC) (setting [7]); 26.8 counts with Transcobalamins (TC) (serum PT 2, Clinical Run 632); 278.9 counts with Transcobalamins (TC) (serum PT 3, Clinical Run 2097); 60.9 counts in the data set on Transcobalamins (TC) (serum PT 4, Clinical Run 1378); 91.1 counts in the data set with Transcobalamins (TC) (serum PT 5, Clinical Run 1682). Moreover, in data set [1], the “pH of the solution” value was found to be 6.10.
